# Measured values reported in BindingDB's records for doi:10.1002/cbic.201402650 (Goethe Universität Frankfurt, 2015).
# Molecular target: T1, Juvenile hormone epoxide hydrolase (Manduca sexta, UniProt Q25489)
# T1 sequence (Q25489 whole entry): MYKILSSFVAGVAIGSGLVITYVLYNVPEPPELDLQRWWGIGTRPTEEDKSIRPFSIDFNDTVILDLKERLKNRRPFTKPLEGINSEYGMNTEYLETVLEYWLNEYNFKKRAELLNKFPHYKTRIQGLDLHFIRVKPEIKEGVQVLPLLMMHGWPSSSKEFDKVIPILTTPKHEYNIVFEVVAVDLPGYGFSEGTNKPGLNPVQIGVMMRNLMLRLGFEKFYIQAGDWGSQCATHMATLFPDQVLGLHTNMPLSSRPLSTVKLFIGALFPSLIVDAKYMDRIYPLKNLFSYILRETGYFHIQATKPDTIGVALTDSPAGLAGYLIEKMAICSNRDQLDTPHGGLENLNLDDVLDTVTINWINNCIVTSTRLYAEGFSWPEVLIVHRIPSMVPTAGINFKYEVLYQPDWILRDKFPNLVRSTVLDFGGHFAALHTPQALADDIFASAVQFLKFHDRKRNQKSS
# Test: Quantitative Reverse Transcriptase Assay
# From the text: We used quantitative reverse-transcriptase PCR to measure the RNA levels of certain AMP genes (lysozyme, gallerimycin, moricin and cecropin) in caterpillars of M. sexta and the greater waxmoth G. mellonella challenged with Serratia entomophila or Salmonella enterica, respectively, following injection of different urea lipid compounds.
row,Structure (SMILES),IC50
1,CC(C)CCCCCCCCCCNC(N)=O [N-(11-Methyldodecyl) urea (5)],> 100 µM
2,CCCCCCCCCCCCCNC(N)=O [N-Tridecyl urea (10)],> 100 µM
3,CNC(=O)NCCCCCCCCC(C)C [N-Methyl-N -(9-methyldecyl) urea (1)],6.5 µM
4,CNC(=O)NCCCCCCCCCCC(C)C [N-Methyl-N -(11-methyldodecyl) urea (3)],30 µM
5,CCCCCCCCCCCCNC(=O)NC [N-Methyl-N -dodecyl urea (4)],10.7 µM
6,CCCCCCCCCCCNC(=O)NC [N-methyl-N -undecyl urea (7)],4.3 µM
7,CCCCCCCCCNC(=O)NC [N-Methyl-N -nonyl urea (11)],> 100 µM
8,CC(C)CCCCCCCCNC(N)=O [N-(9-Methyldecyl) urea (2)],> 100 µM
9,CCCCCCCCCNC(N)=O [N-nonyl urea (12)],> 100 µM
10,"CCCCCCCCCCCCNC(=O)NCC(C)C [US8815951, 478]",2.3 µM
11,CCCCCCCCCCCCCNC(=O)NC [N-Methyl-N -tridecyl urea (9)],10 µM
12,CCCCCCCCCCCCNC(N)=O [N-Dodecyl urea (6)],> 100 µM
